Values quoted from earlier work as cited in patent US20220370613A1, “PHARMACEUTICAL COMPOSITION” (Renown Pharma Inc., priority 2019, published 2022).

Legend:
[1] = test system: "on-off" fluctuations in Parkinson's disease; settings: subcutaneous injection
"switched on" response = settings: sublingual administration

For `CN1CCc2cccc3c2[C@H]1Cc1ccc(O)c(O)c1-3` [apomorphine], which pKa is on record?
The pKa was 8.9.

What about the duration of effect [1] of the same molecule?
The duration of effect was 45 to 90 min.

What about the time to effect [1] of the same molecule?
The time to effect was 5 to 15 min.

What about the “mean time to onset of effect” value ("switched on" response) of the same molecule?
The value was “approximately 30 minutes”.
